This passage reports Assembly and EC50 results from ChEMBL document CHEMBL1149942, “Characterization of the taxol structure-activity profile for the locus of the A-ring side chain” (1994).

Test [1] is described as follows: Activity in calf brain microtubule protein assembly assay. The format is functional, Bos taurus.
The test system of test [2] is J774. Briefly: In vitro cytotoxicity against J774.2 cells after 72 hr incubation. The test is classed as functional. Conditions: Mus musculus, J774, 72 h; read-out: ED50 (the source's name).
Test [3] deals with J774.2. The experiment in a line: Compound was tested for cytotoxicity against J774.2 cells, concentration required to inhibit cell division by 50% after 72 hr incubation. The test is classed as functional. Conditions: Mus musculus, J774.2, 72 h; read-out: ED50 (the source's name).

On to `CC(=O)O[C@H]1C(=O)[C@@]2(C)C([C@H](OC(=O)c3ccccc3)[C@]3(O)C[C@H](OC(=O)[C@H](O)CNC(=O)C(C)(C)C)C(C)=C1C3(C)C)[C@]1(OC(C)=O)CO[C@@H]1C[C@@H]2O` (some centres not stated), for which, in test [1], the Assembly is reported as 28%. Besides, the EC50 in test [2] amounted to 40 µM.

Compound `CC(=O)O[C@H]1C(=O)[C@@]2(C)C([C@H](OC(=O)c3ccccc3)[C@]3(O)C[C@H](OC(=O)[C@H](O)[C@@H](NC(=O)OCc4ccccc4)c4ccccc4)C(C)=C1C3(C)C)[C@]1(OC(C)=O)CO[C@@H]1C[C@@H]2O` (some centres not stated) gave an Assembly in test [1] of 94%. The EC50 in test [2] is 0.19 µM.

As for `CC(=O)O[C@H]1C(=O)[C@@]2(C)C([C@H](OC(=O)c3ccccc3)[C@]3(O)C[C@H](OC(=O)[C@H](O)[C@@H](NC(=O)c4ccccc4O)c4ccccc4)C(C)=C1C3(C)C)[C@]1(OC(C)=O)CO[C@@H]1C[C@@H]2O` (some centres not stated), the Assembly in test [1] was 93%. Moreover, the EC50 in test [2] stood at 0.56 µM.

`CC(=O)O[C@H]1C(=O)[C@@]2(C)C([C@H](OC(=O)c3ccccc3)[C@]3(O)C[C@H](OC(=O)[C@H](O)CNC(=O)C4CCCCC4)C(C)=C1C3(C)C)[C@]1(OC(C)=O)CO[C@@H]1C[C@@H]2O` (some centres not stated) returned an Assembly in test [1] of 33%. The EC50 in test [2] was 16 µM.

`CC(=O)O[C@H]1C(=O)[C@@]2(C)C([C@H](OC(=O)c3ccccc3)[C@]3(O)C[C@H](OC(=O)[C@H](O)CNC(=O)OCc4ccccc4)C(C)=C1C3(C)C)[C@]1(OC(C)=O)CO[C@@H]1C[C@@H]2O` (some centres not stated) gave an Assembly in test [1] of 20%. Further, the EC50 in test [2] is 16 µM.

On to `CC(=O)O[C@H]1C(=O)[C@@]2(C)C([C@H](OC(=O)c3ccccc3)[C@]3(O)C[C@H](OC(=O)[C@H](O)[C@@H](NC(=O)c4ccc(N=[N+]=[N-])cc4)c4ccccc4)C(C)=C1C3(C)C)[C@]1(OC(C)=O)CO[C@@H]1C[C@@H]2O` (some centres not stated), for which the Assembly in test [1] came out at 90%. In test [2], the EC50 was 0.28 µM.

For `CC(=O)O[C@H]1C(=O)[C@@]2(C)C([C@H](OC(=O)c3ccccc3)[C@]3(O)C[C@H](OC(=O)[C@H](O)CNC(=O)OC(C)(C)C)C(C)=C1C3(C)C)[C@]1(OC(C)=O)CO[C@@H]1C[C@@H]2O` (some centres not stated), in test [1], the Assembly worked out at 51%. The EC50 in test [2] was found to be 2 µM.

For `CC(=O)O[C@H]1C(=O)[C@@]2(C)C([C@H](OC(=O)c3ccccc3)[C@]3(O)C[C@H](OC(=O)[C@H](O)[C@@H](NC(=O)c4ccc(C(=O)c5ccccc5)cc4)c4ccccc4)C(C)=C1C3(C)C)[C@]1(OC(C)=O)CO[C@@H]1C[C@@H]2O` (some centres not stated), the Assembly in test [1] is 39%. Also, in test [2], the EC50 amounted to 1.5 µM.

On to `CC(=O)O[C@H]1C(=O)[C@@]2(C)C([C@H](OC(=O)c3ccccc3)[C@]3(O)C[C@H](OC(=O)[C@H](O)[C@@H](NC(=O)c4ccc(C(C)=O)cc4)c4ccccc4)C(C)=C1C3(C)C)[C@]1(OC(C)=O)CO[C@@H]1C[C@@H]2O` (some centres not stated), for which the Assembly in test [1] worked out at 84%. Moreover, in test [2], the EC50 turned out to be 1.6 µM.

`CC(=O)O[C@H]1C(=O)[C@@]2(C)C([C@H](OC(=O)c3ccccc3)[C@]3(O)C[C@H](OC(=O)[C@H](O)CNC(=O)c4ccc(N=[N+]=[N-])cc4)C(C)=C1C3(C)C)[C@]1(OC(C)=O)CO[C@@H]1C[C@@H]2O` (some centres not stated): in test [1], the Assembly stood at 25%. In addition, the EC50 in test [2] is 20 µM.

For the compound `CC(=O)O[C@H]1C(=O)[C@@]2(C)C([C@H](OC(=O)c3ccccc3)[C@]3(O)C[C@H](OC(=O)[C@H](O)CNC(=O)C45CC6CC(CC(C6)C4)C5)C(C)=C1C3(C)C)[C@]1(OC(C)=O)CO[C@@H]1C[C@@H]2O` (some centres not stated), in test [1], the Assembly is on record as 24%. For the same compound, the EC50 in test [2] worked out at 11 µM.

Take `CC(=O)O[C@@]12CO[C@@H]1C[C@H](O)[C@@]1(C)C(=O)[C@H](O)C3=C(C)[C@@H](OC(=O)[C@H](O)[C@@H](NC(=O)OC(C)(C)C)c4ccccc4)C[C@@](O)([C@@H](OC(=O)c4ccccc4)[C@H]21)C3(C)C.O.O.O` [DOCETAXEL]: in test [1], the Assembly amounted to 105%. Also, the EC50 in test [2] amounted to 0.05 µM.

Regarding `CC(=O)O[C@H]1C(=O)[C@@]2(C)[C@H]([C@H](OC(=O)c3ccccc3)[C@]3(O)C[C@H](OC(=O)[C@H](O)[C@@H](NC(=O)c4ccccc4)c4ccccc4)C(C)=C1C3(C)C)[C@]1(OC(C)=O)CO[C@@H]1C[C@@H]2O` [PACLITAXEL], the Assembly in test [1] is 100%. In test [2], the EC50 turned out to be 0.09 µM.

In turn, `CC(=O)O[C@H]1C(=O)[C@@]2(C)C([C@H](OC(=O)c3ccccc3)[C@]3(O)C[C@H](OC(=O)[C@H](O)[C@@H](NC(=O)c4ccc(C(F)(F)F)cc4)c4ccccc4)C(C)=C1C3(C)C)[C@]1(OC(C)=O)CO[C@@H]1C[C@@H]2O` (some centres not stated) returned an Assembly in test [1] of 80%. Moreover, the EC50 in test [2] was 0.9 µM.

In test [1], `CC(=O)O[C@H]1C(=O)[C@@]2(C)C([C@H](OC(=O)c3ccccc3)[C@]3(O)C[C@H](OC(=O)[C@H](O)CNC(=O)c4ccccc4)C(C)=C1C3(C)C)[C@]1(OC(C)=O)CO[C@@H]1C[C@@H]2O` (some centres not stated) displayed an Assembly of 60%. Further, the EC50 in test [2] was 20 µM.

Take `Nc1nc2c(ncn2[C@@H]2O[C@H](COP(=O)(O)OP(=O)(O)OP(=O)(O)O)[C@@H](O)[C@H]2O)c(=O)[nH]1` [GUANOSINE TRIPHOSPHATE]: the Assembly in test [1] came to 70%.

`CC(=O)O[C@H]1C(=O)[C@@]2(C)C([C@H](OC(=O)c3ccccc3)[C@]3(O)C[C@H](OC(=O)[C@H](O)CNC(=O)c4ccc5ccccc5c4)C(C)=C1C3(C)C)[C@]1(OC(C)=O)CO[C@@H]1C[C@@H]2O` (some centres not stated) returned an Assembly in test [1] of 28%. For the same compound, the EC50 in test [3] worked out at 26 µM.

In the case of `CC(=O)O[C@H]1C(=O)[C@@]2(C)C([C@H](OC(=O)c3ccccc3)[C@]3(O)C[C@H](OC(=O)[C@H](O)CNC(=O)c4ccc(C(F)(F)F)cc4)C(C)=C1C3(C)C)[C@]1(OC(C)=O)CO[C@@H]1C[C@@H]2O` (some centres not stated), the Assembly in test [1] came to 20%. For the same compound, the EC50 in test [2] is 23 µM.

The compound `CCCCCC(=O)NC[C@@H](O)C(=O)O[C@H]1C[C@@]2(O)[C@@H](OC(=O)c3ccccc3)C3[C@](C)(C(=O)[C@H](OC(C)=O)C(=C1C)C2(C)C)[C@@H](O)C[C@H]1OC[C@@]31OC(C)=O` (some centres not stated) gave an Assembly in test [1] of 34%. Besides, the EC50 in test [3] is 26 µM.
